From article PMC7948482, “Erythrocytes efficiently utilize exogenous sphingosines for S1P synthesis and export via Mfsd2b” (The Journal of Biological Chemistry, 2021)

Target: T1, Mfsd2b (Mus musculus, UniProt Q3T9M1)
T1 construct: full-length native transporter in isolated mouse erythrocytes; Mfsd2b knockout erythrocytes as control
T1 sequence (Q3T9M1 1-494): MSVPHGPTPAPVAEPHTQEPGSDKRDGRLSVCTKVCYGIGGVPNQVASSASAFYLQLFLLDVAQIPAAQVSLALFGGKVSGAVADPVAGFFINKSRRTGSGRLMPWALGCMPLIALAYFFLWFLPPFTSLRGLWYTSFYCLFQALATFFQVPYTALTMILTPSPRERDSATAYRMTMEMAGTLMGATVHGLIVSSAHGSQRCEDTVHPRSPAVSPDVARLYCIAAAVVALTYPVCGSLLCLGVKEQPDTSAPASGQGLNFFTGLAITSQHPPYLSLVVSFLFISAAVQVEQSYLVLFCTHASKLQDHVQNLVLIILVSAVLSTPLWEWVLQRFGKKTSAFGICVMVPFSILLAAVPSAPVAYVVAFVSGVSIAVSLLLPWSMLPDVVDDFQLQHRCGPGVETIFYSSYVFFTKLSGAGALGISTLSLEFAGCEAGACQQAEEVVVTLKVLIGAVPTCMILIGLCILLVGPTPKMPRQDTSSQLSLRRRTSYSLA
Test: [[…]-3H]-S1P export, WT versus Mfsd2b KO erythrocytes
Type: cell-based
Details: S1P formed inside from [3-3H]-Sph; 0.5% BSA acceptor; pH 7.4; labelled compound

CCCCCCCCCCCCC/C=C/[C@@H](O)[C@@H](N)COP(=O)(O)O [S1P]
[3-3H]-S1P export, WT versus Mfsd2b KO erythrocytes: Mfsd2b KO erythrocytes showed a significant reduction of S1P transport
